What was measured:
p16 protein expression = experiment: Western blotting of p16 protein in HeLa cells; format: cell-based, human; settings: 48 hours, various concentrations, α-tubulin internal standard, FIG. 7
Protocol: After being cultured for 48 hours in the presence of various concentrations of polyamide, HeLa cells were harvested and lysed again in an extraction buffer containing 20 mM Tris-HCl (pH 7.5), 150 mM NaCl, 1 mM EDTA, 1% Nonidet P-40 and Complete Protease Inhibitor Cocktail Tablets (Roche), and then centrifuged at 13,500×g at 4° C. for 15 minutes. The resulting supernatants were supplemented with a sample buffer solution (2ME+, ×4) (Wako Pure Chemical Industries, Ltd., Japan) to give samples. These samples were developed on a 15% polyacrylamide gel, electrically transferred to a polyvinylidene difluoride membrane (Millipore Corporation, USA), and then blocked with 5% skimmed milk for the purpose of preventing non-specific binding. The primary antibodies used for target protein detection were purified anti-human p16INK4 monoclonal antibody (BD bioscience) for p16 and α-tubulin (TU-02) (SANTA CRUZ) for α-tubulin used as an internal standard. […] After antibody labeling, the membrane was developed with Immobilon western (MILLIPORE) and then detected by Las-4000 mini (Fuji Photo Film Co., Ltd., Japan). The area and intensity of each band were determined by Multigauge (Fuji Photo Film Co., Ltd., Japan) and quantified in comparison with a 50% DMSO-treated control, which was set to 100%.

[1] = system: RKO (human large bowel cancer cell line); experiment: Cell proliferation assay (WST-8) on RKO cells; format: cell-based
Protocol: Next, the synthesized compounds were verified by WST-8 assay for their ability to suppress cancer cell proliferation.
Cell lines of HeLa (human uterine cervical cancer cell line), LOVO, RKO and SW480 (each of which was a human large bowel cancer cell line) were each cultured at 37° C. under 5% carbon dioxide conditions using Dulbecco's modified Eagle's medium (DMEM, Nacalai Tesque, Inc., Japan) supplemented with 10% fetal bovine serum (FBS: JRH bioscience, USA), antibiotics (50 U/ml penicillin and 50 μg/ml streptomycin) and 1 mM sodium pyruvate. Single-layered cells grown to 80-90% confluency on 10 cm cell culture dishes were washed with D-PBS(−) (Nacalai Tesque, Inc., Japan) and then released from the dishes by being treated with a phenol red-containing 2.5 g/L-Trypsine/1 mmol/L EDTA solution (Nacalai Tesque, Inc., Japan). The released cells were adjusted and maintained in fresh medium.
Each cell line seeded at 3×10^3 cells/well in a MICROTEST tissue culture plate (96 well, FALCON) was cultured at 37° C. under 5% carbon dioxide conditions for 24 hours, and then cultured in the presence of various concentrations of PI polyamide for an additional 72 hours. After completion of the culture, 10 μl of viable cell counting reagent SF (Nacalai Tesque, Inc., Japan) was added to each well and the absorbance at 450 nm was measured by ARVO EX (PerkinElmer). During the period from reagent addition until assay, incubation was continued at 37° C. in the presence of 5% CO2 until the absorbance reached about 1.2 to 2.0 in the control sample where only 50% DMSO was added to the cells.

SMILES: CN(C)CCCNC(=O)CCNC(=O)c1cc(NC(=O)c2nc(NC(=O)c3nc(NC(=O)CCNC(=O)c4cc(NC(=O)c5nc(NC(=O)CCCNC(=O)c6cc(NC(=O)c7nc(NC(=O)CCNC(=O)c8cc(NC(=O)c9cc(NC(=O)c%10nc(NC(=O)CCNC(=O)CCNC(=O)c%11ccc(NC(=O)CCCCCCC(=O)NO)cc%11)cn%10C)cn9C)cn8C)cn7C)cn6C)cn5C)cn4C)cn3C)cn2C)cn1C [SAHA+p16 PIP, SAHA-ββImPyPyβImPyγImPyβImImPyβDp]
- expression of p16 at the protein level (p16 protein expression): enhanced the expression
- suppression of RKO cell proliferation at 100 nM ([1]; 100 nM, 72 hours, FIG. 4): not suppressed
- inhibition of RKO cell proliferation ([1]; 72 hours, WST-8, FIG. 4): inhibit proliferation
- ability to suppress proliferation, compared among the 4 cancer cell lines (RKO) ([1]; FIG. 4, listed as p16 PIP attached to the SAHA derivative): high and lowest
